In patent US9056099B2, “Compositions and methods for treating viral diseases” (NovaDrug, LLC, priority 2010, dated 2015):

Test system: HCV (JFH-1) in Huh7-1 cells
Experiment: Assay for anti-HCV efficacy: JFH-1 HCV infection of Huh7-1 cultures, intracellular HCV RNA by RT-qPCR
Type: cell-based, Hepatitis C virus
Conditions: Compound Example 2 series; % viral titer at 5 μM or 15 μM; HCV-infected Huh7-1 cultures
Source text: In the past, HCV studies involved mainly infected patients and chimpanzees. Recently, a robust HCV infection system was developed with cells derived from the Huh-7 human hepatoma cell line (see, for example, Yu et al., “Development of a cell-based hepatitis C virus infection fluorescent resonance energy transfer assay for high-throughput antiviral compound screening” Antimicrob Agents Chemother. 2009 53:4311-4319 for additional details regarding growing virus stocks, maintenance of the Huh-7 cells, infection parameters, and HCV titers determinations; and Yu & Uprichard “Cell-based hepatitis C virus infection fluorescence resonance energy transfer (FRET) assay for antiviral compound screening” Curr Protoc Microbiol. 2010; Chapter 17: Unit 17.5). Briefly, the assay is based on the unique JFH-1 HCV consensus cDNA derived from an HCV patient. Using reverse genetics, the infectious virus can be rescued from this HCV clone. The recovered viable JFH virus can be passaged serially in Huh-7 cells. For this reason, this system is amenable for testing the activity of potential drugs for their anti-HCV efficacy. The antiviral activity of the compounds described herein is tested in this system.
Initially, 6×10^3 Huh7-1 cells are incubated overnight in each well of collagen-coated BioCoat 96-well plates (BD Biosciences, Bedford, Mass.) in 0.2 mL 10% Medium composed of Dulbecco's modified Eagle's medium supplemented with 10% fetal bovine serum. Subsequently, at 2 day intervals, the cultures are replenished with fresh 0.2 mL 10% Medium. Once the cultures become confluent, they are continually replenished at 2 day intervals with fresh 0.2 mL 10% Medium that also includes 1% dimethyl sulfoxide (DMSO). After 20 days of these replenishments, the Huh7-1 cultures are incubated with fresh 1% Medium (same as 10% Medium except that the serum level is 1%) containing HCV at a multiplicity of infection (MOI) of 0.05 focus forming units (ffu)/cell. The HCV (JFH-1wt Huh7) stock titer is 1.5×10^5 ffu/mL. The next day (day 1 post-infection) and 2 days later (day 3 post-infection) the media are replenished with fresh 1% Medium containing the test compounds dissolved in DMSO. On the 5th day of treatment with the compounds, cell lysates are collected for RNA isolation and Real Time-quantitative Reverse Transcription Polymerase Chain Reaction (RT-qPCR) and culture media are collected for cytotoxicity analysis.
Total RNA is isolated from cells by the guanidine thiocyanate method using standard protocols. One μg RNA is used for cDNA synthesis using TaqMan reverse transcription reagents (Applied Biosystems, Foster City, Calif.) followed by real-time PCR using an Applied Biosystems 7300 real-time thermocycler. Illustrative thermal cycling consists of initial denaturation of 10 min at 95° C. followed by 40 cycles of denaturation (15 s at 95° C.) and annealing/extension (1 m at 60° C.). HCV and human glyceraldehyde-3-phosphate dehydrogenase (GAPDH) RNA levels are determined relative to a standard curve of serial dilutions of plasmid containing JFH-1 HCV or GAPDH cDNA. The PCR primers used to detect GAPDH and HCV are illustratively: GAPDH (NMX002046) 5′-GAAGGTGAAGGTCGGAGTC-3′ (SEQ ID NO: 5) (sense) and 5′-[…]-3′ (SEQ ID NO: 6) (anti-sense) JFH-1 HCV (AB047639) 5′-TCTGCGGAACCGGTGAGTA-3′ (SEQ ID NO: 7) (sense) and 5′-TCAGGCAGTACCACAAGGC-3′ (SEQ ID NO: 8) (anti-sense).
FIGS. 1-7 illustrate the intracellular HCV RNA levels when cultures are incubated with the selected test compounds at the doses shown. When HCV RNA levels are compared among the samples, the data may indicate that the compounds cause a dose dependent decrease in HCV RNA levels relative to the mock-treated (no compound added) HCV infected control.

Compound | Activity (viral titer)
O=C(c1ccccn1)N1C[C@@H](c2ccc(F)cc2)[C@@H]2CN(Cc3ccc(F)cc3)CC[C@@H]21 | − (>60% viral titer at 15 μM (highest concentration tested))
Cc1nn(C)cc1CN1CC[C@H]2[C@@H](C1)[C@H](c1ccc(F)cc1)CN2C(=O)c1cccnc1 | − (>60% viral titer at 15 μM (highest concentration tested))
O=C(c1cccnc1)N1CC(c2ccc(F)cc2)C2CN(Cc3cccc(F)c3)CCC21 (centres unmarked) | − (>60% viral titer at 15 μM (highest concentration tested))
O=C(c1ccc(F)cc1)N1CC(c2ccsc2)C2CN(Cc3ccccc3F)CCC21 (centres unmarked) | − (>60% viral titer at 15 μM (highest concentration tested))
Cc1ccccc1CN1CC[C@H]2[C@@H](C1)[C@H](c1ccsc1)CN2C(=O)c1ccc(F)cc1 | − (>60% viral titer at 15 μM (highest concentration tested))
O=C(c1ccc(F)cc1)N1CC(c2ccsc2)C2CN(Cc3ccccn3)CCC21 (centres unmarked) | − (>60% viral titer at 15 μM (highest concentration tested))
O=C(c1ccc(F)cc1)N1C[C@@H](c2ccsc2)[C@@H]2CN(Cc3cccc(F)c3)CC[C@@H]21 | − (>60% viral titer at 15 μM (highest concentration tested))
Cc1ccc(CN2CCC3C(C2)C(c2ccsc2)CN3C(=O)c2ccc(F)cc2)cc1 (centres unmarked) | − (>60% viral titer at 15 μM (highest concentration tested))
O=C(c1ccc(F)cc1)N1C[C@@H](c2ccsc2)[C@@H]2CN(Cc3ccncc3)CC[C@@H]21 | − (>60% viral titer at 15 μM (highest concentration tested))
O=C(c1ccncc1)N1C[C@@H](c2ccsc2)[C@@H]2CN(Cc3ccccc3Cl)CC[C@@H]21 | − (>60% viral titer at 15 μM (highest concentration tested))
Cc1ccccc1CN1CC[C@H]2[C@@H](C1)[C@H](c1ccsc1)CN2C(=O)c1ccncc1 | − (>60% viral titer at 15 μM (highest concentration tested))
CC(C)c1ccc(CN2CC[C@H]3[C@@H](C2)[C@H](c2ccsc2)CN3C(=O)c2ccncc2)cc1 | − (>60% viral titer at 15 μM (highest concentration tested))
COc1ccc(CN2CC[C@H]3[C@@H](C2)[C@H](c2ccsc2)CN3C(=O)c2ccncc2)cc1 | − (>60% viral titer at 15 μM (highest concentration tested))
COc1cccc(CN2CC[C@H]3[C@@H](C2)[C@H](c2ccsc2)CN3C(=O)c2ccncc2)c1 | − (>60% viral titer at 15 μM (highest concentration tested))
O=C(c1ccncc1)N1C[C@@H](c2ccsc2)[C@@H]2CN(Cc3cccc(F)c3F)CC[C@@H]21 | − (>60% viral titer at 15 μM (highest concentration tested))
Cc1ccc(CN2CCC3C(C2)C(c2ccsc2)CN3C(=O)c2ccncc2)cc1 (centres unmarked) | − (>60% viral titer at 15 μM (highest concentration tested))

Compound | Activity (viral titer)
O=C(c1ccncc1)N1CC(c2ccsc2)C2CN(Cc3ccccc3)CCC21 (centres unmarked) | − (>60% viral titer at 15 μM (highest concentration tested))
O=C(c1ccncc1)N1C[C@@H](c2ccc(F)cc2)[C@@H]2CN(Cc3ccccc3Cl)CC[C@@H]21 | +++ (≦30% viral titer at 5 μM)
O=C(c1ccncc1)N1CC(c2ccc(F)cc2)C2CN(Cc3ccccc3F)CCC21 (centres unmarked) | − (>60% viral titer at 15 μM (highest concentration tested))
Cc1ccccc1CN1CCC2C(C1)C(c1ccc(F)cc1)CN2C(=O)c1ccncc1 (centres unmarked) | − (>60% viral titer at 15 μM (highest concentration tested))
O=C(c1ccncc1)N1C[C@@H](c2ccc(F)cc2)[C@@H]2CN(Cc3ccccn3)CC[C@@H]21 | − (>60% viral titer at 15 μM (highest concentration tested))
O=C(c1ccncc1)N1CC(c2ccc(F)cc2)C2CN(Cc3cccc(F)c3)CCC21 (centres unmarked) | − (>60% viral titer at 15 μM (highest concentration tested))
O=C(c1ccncc1)N1C[C@@H](c2ccc(F)cc2)[C@@H]2CN(Cc3ccc(F)cc3)CC[C@@H]21 | − (>60% viral titer at 15 μM (highest concentration tested))
O=C(c1ccncc1)N1CC(c2ccc(F)cc2)C2CN(Cc3ccncc3)CCC21 (centres unmarked) | − (>60% viral titer at 15 μM (highest concentration tested))
O=C(c1ccncc1)N1CC(c2ccc(F)cc2)C2CN(Cc3ccccc3)CCC21 (centres unmarked) | − (>60% viral titer at 15 μM (highest concentration tested))
O=C(c1ccccc1)N1C[C@@H](c2ccsc2)[C@@H]2CN(Cc3ccccc3Cl)CC[C@@H]21 | − (>60% viral titer at 15 μM (highest concentration tested))
COc1ccccc1CN1CC[C@H]2[C@@H](C1)[C@H](c1ccsc1)CN2C(=O)c1ccccc1 | − (>60% viral titer at 15 μM (highest concentration tested))
O=C(c1ccccc1)N1C[C@@H](c2ccsc2)[C@@H]2CN(Cc3cccc(F)c3)CC[C@@H]21 | − (>60% viral titer at 15 μM (highest concentration tested))
O=C(c1ccccc1)N1CC(c2ccsc2)C2CN(Cc3cccnc3)CCC21 (centres unmarked) | − (>60% viral titer at 15 μM (highest concentration tested))
O=C(c1ccccc1)N1C[C@@H](c2ccsc2)[C@@H]2CN(Cc3ccc(F)cc3)CC[C@@H]21 | ++ (≦60% viral titer at 5 μM)
O=C(c1ccccc1)N1CC(c2ccsc2)C2CN(Cc3ccccc3)CCC21 (centres unmarked) | ++ (≦60% viral titer at 5 μM)
COc1ccc(C2CN(C(=O)c3ccccc3)C3CCN(Cc4ccc(F)cc4)CC23)cc1 (centres unmarked) | +++ (≦30% viral titer at 5 μM)
